According to ChEMBL document CHEMBL1152566, “Synthesis and activity of azaterphenyl diamidines against Trypanosoma brucei rhodesiense and Plasmodium falciparum” (Bioorg Med Chem, 2009):
The source made the active and inactive calls. The calls are words filed in the database; no cut-off is given here.

Legend:
[1] = tested on: Trypanosoma brucei rhodesiense; experiment: Antitrypanosomal activity against Trypanosoma brucei rhodesiense STIB900 infected in NMRI mouse assessed as survival at 5 mg/kg, ip; assay type: functional, organism-based; parameters: dose 5 mg/kg
[2] = tested on: Trypanosoma brucei rhodesiense; experiment: Antitrypanosomal activity against Trypanosoma brucei rhodesiense STIB900 infected in NMRI mouse assessed as survival days at 5 mg/kg, ip; assay type: functional; conditions: route intraperitoneal
[3] = tested on: Plasmodium falciparum; experiment: Antiplasmodial activity against Plasmodium falciparum K1; assay type: functional, organism-based
[4] = tested on: Trypanosoma brucei rhodesiense; experiment: Antitrypanosomal activity against Trypanosoma brucei rhodesiense STIB900; assay type: functional, organism-based
[5] = tested on: Trypanosoma brucei rhodesiense; conditions: dose 20 mg/kg; route intraperitoneal
Description: Antitrypanosomal activity against Trypanosoma brucei rhodesiense STIB900 infected in NMRI mouse assessed as survival days at 20 mg/kg, ip

[6] = tested on: Trypanosoma brucei rhodesiense; experiment: Antitrypanosomal activity against Trypanosoma brucei rhodesiense STIB900 infected in NMRI mouse assessed as survival at 20 mg/kg, ip; assay type: functional, organism-based; parameters: dose 20 mg/kg

Row | SMILES | Activity [1] | Survival [2] [days] | IC50 [3] [nM] | IC50 [4] [nM] | Survival [5] [days] | Activity [6]
1 | N=C(N)c1ccc(-c2ccc(-c3ccc(C(=N)N)nc3)cc2)cn1 | inactive | >51.5 |  |  |  | 
2 | N=C(N)c1ccc(-c2ccc(-c3cnc(C(=N)N)cn3)cn2)cc1 |  | >31.75 | 5.7 |  |  | 
3 | N=C(N)c1ccc(-c2ccc(-c3ccc(C(=N)N)nc3)cc2)cc1 | inactive | >48.75 |  |  |  | 
4 | N=C(N)c1ccc(-c2ccc(-c3cnc(C(=N)N)nc3)cn2)cc1 | inactive | >43.25 | 1.5 | 12 |  | 
5 | N=C(N)c1ccc(-c2ccc(-c3ccc(C(=N)N)cc3)nc2)cc1 |  | >42 | 10 | 2 |  | 
6 | N=C(N)c1ccc(-c2cnc(-c3ccc(C(=N)N)cc3)nc2)cc1 | inactive | 23.5 |  |  |  | 
7 | N=C(N)c1ccc(-c2ccc(-c3ccc(C(=N)N)cn3)o2)cc1 |  | >54.5 |  |  | >60 | Active
8 | N=C(N)c1ccc(-c2ccc(-c3ccc(C(=N)N)cc3)nn2)cc1 |  | >49.25 | 1.3 | 14 |  | 
9 | N=C(N)c1ccc(-c2ccc(-c3ccc(C(=N)N)cc3)cc2)cc1 |  |  | 1.4 | 5 | >47.75 | 
10 | N=C(N)c1ccc(-c2ccc(-c3ccc(C(=N)N)nc3)cn2)cc1 |  | >60 | 1.1 | 6 |  | 
11 | N=C(N)c1ccc(-c2ccc(-c3cnc(C(=N)N)nc3)cc2)cc1 |  | >46.25 | 0.6 | 4 |  | 
12 | N=C(N)c1ccc(-c2cnc(-c3ccc(C(=N)N)cc3)cn2)cc1 | inactive | 36.5 | 0.4 | 18 |  | 
13 | N=C(N)c1ccc(-c2ccc(-c3ccc(C(=N)N)cn3)cc2)nc1 |  | >60 | 10.1 | 47 |  | 
14 | N=C(N)c1ccc(-c2ccc(-c3ccc(C(=N)N)cc3)o2)cc1 [FURAMIDINE] |  | >46 |  |  | >57.75 | 
15 | N=C(N)c1ccc(-c2ccc(-c3ccc(C(=N)N)cn3)cc2)cc1 |  | >56 | 1.3 |  |  | 
16 | N=C(N)c1ccc(-c2ccc(-c3ccc(C(=N)N)cn3)cn2)cc1 |  | >60 | 2.5 |  |  | 
17 | N=C(N)c1ncc(-c2ccc(-c3cnc(C(=N)N)nc3)cc2)cn1 |  | >43.25 | 0.6 | 6 |  | 
